For one assay, the system named is pERK in MKN1 cells. Kind of assay: pERK inhibition, In-Cell Western (LI-COR Odyssey), MKN1 cells. The format is cell-based. The settings on record: Homo sapiens, MKN-1, Table B; MKN1 or H358 cells (table does not say which); 0.5-1 hour incubation; read-out: IC50 (nM), pERK inhibition. On the procedure:
This Example illustrates that exemplary compounds of the present invention prevent KRas-mediated GTP nucleotide exchange mediated by SOS1 to inhibit KRas activity thereby inhibiting the generation of the downstream effector pERK.
MKN1 cells (15,000/w) or H358 (30,000/w) were seeded in a black clear flat bottom 96-well cell culture plate (Corning, #3904) and incubated at 37° C. overnight. Assay day 1, cells were dosed with compounds of Formula (I) with a 10 μm starting concentration and serially diluted 3× for a total of 9 concentrations. The cells were incubated for approximately 0.5-1 hour with the compounds solubilized in DMSO at 37° C. Cells were immediately fixed by adding 50 μL of 4% formaldehyde to all wells in a fume hood and the plates were incubated for 20 minutes at room temperature. The formaldehyde was discarded from the plates and 150 μL of ice-cold methanol was added to permeabilize the cells for 10 minutes at −20° C. The methanol was discarded from each of the plates and any liquid remaining in the plate by tapping the plate against paper towels. Cells were then blocked with 150 μL of Odyssey blocking buffer (LI-COR Biosciences #927-50010) using 0.05% Tween for 1 hour at room temperature on a shaker. The blocking buffer was discarded and 50 μL of primary antibodies pERK (cell signaling Technology #9101L; Rabbit, 1:500) and GapDH (Millipore #MAB34; Mouse, 1:5000) diluted in Odyssey blocking buffer was added. The plates were incubated overnight at 4° C. on a shaker.
On Assay day 2, the primary antibody solution was removed. Each plate was washed 3× times with 150 μL of 1×PBST (PBS+0.1% Tween 20) and incubated with 50 μL of secondary antibodies: Anti-Rabbit (LI-COR Biosciences #926-32211) and Anti-Mouse (LI-COR Biosciences #68070) at 1:800 dilution in Odyssey blocking buffer with Tween at room temperature on a shaker for 2 hours (protected from light). The secondary antibody solution as removed and each plate was washed with PBST 3× times. Any liquid remaining was discarded and the plate was imaged using the Licor Odyssey machine according to the manufacturer's instruction, using a set focus length at 3 mm and both 800 nm and 700 nm filters. The GAPDH normalized scan values for each well were divided by the average of vehicle wells to get the % of pERK inhibition. The IC50 values were then calculated with the Graph pad Prism software.

The target of assay [1] is T1, recombinant human SOS1 polypeptide (amino acids 560-1049) (Homo sapiens, UniProt Q07889).
T1 construct: corresponding to amino acids 560-1049, expressed in E. Coli; made in house; host or cells: E. coli
T1 sequence (Q07889 560-1049): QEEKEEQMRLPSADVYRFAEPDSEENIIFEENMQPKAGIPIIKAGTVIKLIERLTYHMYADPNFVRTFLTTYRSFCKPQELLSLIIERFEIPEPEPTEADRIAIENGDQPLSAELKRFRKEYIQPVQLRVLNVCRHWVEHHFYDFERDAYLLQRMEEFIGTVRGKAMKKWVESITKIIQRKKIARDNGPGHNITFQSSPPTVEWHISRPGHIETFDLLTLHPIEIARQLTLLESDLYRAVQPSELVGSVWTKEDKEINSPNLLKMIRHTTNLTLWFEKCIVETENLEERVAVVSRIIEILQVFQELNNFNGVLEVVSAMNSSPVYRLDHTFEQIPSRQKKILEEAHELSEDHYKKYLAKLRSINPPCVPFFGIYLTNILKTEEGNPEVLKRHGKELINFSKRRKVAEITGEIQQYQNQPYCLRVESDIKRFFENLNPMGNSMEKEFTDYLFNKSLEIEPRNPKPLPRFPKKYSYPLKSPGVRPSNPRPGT
Put plainly: HTRF displacement assay: inhibition of labeled tracer binding to SOS1. The settings on record: Table A, Morrison equation for competitive binding. A general note: Time-resolved FRET reads energy transfer from a long-lived donor to a nearby acceptor.

A word on the IC50: it is the concentration needed to halve the response being measured. A word on the Ki: it is the dissociation constant of the complex between target and ligand, obtained from inhibition or displacement.

`CCN(CC)C1(C)CN(c2cc3c(N[C@H](C)c4cccc(C#N)c4C)nnc(C)c3cn2)C1` [Example 1-2, (R)-3-(1-((7-(3-(diethylamino)-3-methylazetidin-1-yl)-4-methylpyrido[3,4-d]pyridazin-1-yl)amino)ethyl)-2-methylbenzonitrile]: in the assay with pERK in MKN1 cells, the IC50 came to 126 nM. The Ki in assay [1] amounted to 2.22 nM.
In the same order, the values of `CN[C@H]1CCN(c2cc3c(N[C@H](C)c4cccc(C#N)c4C)nnc(C)c3cn2)C1` [Example 1-3, 2-methyl-3-((R)-1-((4-methyl-7-((S)-3-(methylamino)pyrrolidin-1-yl)pyrido[3,4-d]pyridazin-1-yl)amino)ethyl)benzonitrile] are 95.1 nM and 1.42 nM.
With `Cc1c(C#N)cccc1[C@@H](C)Nc1nnc(C)c2cnc(N3CC(C)(N4CCCC4)C3)cc12` [Example 1-4, (R)-2-methyl-3-(1-((4-methyl-7-(3-methyl-3-(pyrrolidin-1-yl)azetidin-1-yl)pyrido[3,4-d]pyridazin-1-yl)amino)ethyl)benzonitrile], the IC50 in the assay on pERK in MKN1 cells was 62.6 nM. Besides, the Ki in assay [1] turned out to be 1.22 nM.
In the same order, the values of `Cc1c(C#N)cccc1[C@@H](C)Nc1nnc(C)c2cnc(N(C)[C@H]3CCN(C)C3)cc12` [Example 1-5, 2-methyl-3-((R)-1-((4-methyl-7-(methyl((S)-1-methylpyrrolidin-3-yl)amino)pyrido[3,4-d]pyridazin-1-yl)amino)ethyl)benzonitrile] are 57.2 nM and 0.683 nM.
`Cc1c(C#N)cccc1[C@@H](C)Nc1nnc(C)c2cnc(N(C)[C@@H]3CCN(C)C3)cc12` [Example 1-6, 2-methyl-3-((R)-1-((4-methyl-7-(methyl((R)-1-methylpyrrolidin-3-yl)amino)pyrido[3,4-d]pyridazin-1-yl)amino)ethyl)benzonitrile]: the half-maximal inhibitory concentration (IC50) in the assay with pERK in MKN1 cells came to 41.6 nM. Besides, the Ki in assay [1] was 1.56 nM.
In the same order, the values of `CCN1CC2(C1)CN(c1cc3c(N[C@H](C)c4cccc(C#N)c4C)nnc(C)c3cn1)C2` [Example 1-7, (R)-3-(1-((7-(6-ethyl-2,6-diazaspiro[3.3]heptan-2-yl)-4-methylpyrido[3,4-d]pyridazin-1-yl)amino)ethyl)-2-methylbenzonitrile] are 39.4 nM and 0.378 nM.
In the same order, the values of `Cc1c(C#N)cccc1[C@@H](C)Nc1nnc(C)c2cnc(N3CC[C@@H](N)C3)cc12` [Example 1-8, 3-((R)-1-((7-((R)-3-aminopyrrolidin-1-yl)-4-methylpyrido[3,4-d]pyridazin-1-yl)amino)ethyl)-2-methylbenzonitrile] are 274 nM and 1.54 nM.
For `Cc1c(C#N)cccc1[C@@H](C)Nc1nnc(C)c2cnc(N3CC[C@H](N)C3)cc12` [Example 1-9, 3-((R)-1-((7-((S)-3-aminopyrrolidin-1-yl)-4-methylpyrido[3,4-d]pyridazin-1-yl)amino)ethyl)-2-methylbenzonitrile], the concentration for half-maximal inhibition (IC50) with pERK in MKN1 cells is 396 nM. Besides, the Ki in assay [1] came to 1.66 nM.
In the same order, the values of `Cc1c(C#N)cccc1[C@@H](C)Nc1nnc(C)c2cnc(N3CC4(CNC4)C3)cc12` [Example 1-10, (R)-2-methyl-3-(1-((4-methyl-7-(2,6-diazaspiro[3.3]heptan-2-yl)pyrido[3,4-d]pyridazin-1-yl)amino)ethyl)benzonitrile] are 3280 nM and 0.541 nM.
In the same order, the values of `Cc1c(C#N)cccc1[C@@H](C)Nc1nnc(C)c2cnc(N3CCN(C)[C@@H](C)C3)cc12` [Example 1-11, 3-((R)-1-((7-((S)-3,4-dimethylpiperazin-1-yl)-4-methylpyrido[3,4-d]pyridazin-1-yl)amino)ethyl)-2-methylbenzonitrile] are 72.5 nM and 1.62 nM.
On the same counts, the results for `Cc1c(C#N)cccc1[C@@H](C)Nc1nnc(C)c2cnc(N3CCN(C)[C@H](C)C3)cc12` [Example 1-12, 3-((R)-1-((7-((R)-3,4-dimethylpiperazin-1-yl)-4-methylpyrido[3,4-d]pyridazin-1-yl)amino)ethyl)-2-methylbenzonitrile] are 56.6 nM and 1.01 nM.
For the compound `CCN1CCN(c2cc3c(N[C@H](C)c4cccc(C#N)c4C)nnc(C)c3cn2)C[C@H]1C` [Example 1-13, 3-((R)-1-((7-((R)-4-ethyl-3-methylpiperazin-1-yl)-4-methylpyrido[3,4-d]pyridazin-1-yl)amino)ethyl)-2-methylbenzonitrile], in the assay on pERK in MKN1 cells, the concentration for half-maximal inhibition (IC50) is 47.3 nM. Besides, the Ki in assay [1] is 0.82 nM.
In the same order, the values of `CCN1CCN(c2cc3c(N[C@H](C)c4cccc(C#N)c4C)nnc(C)c3cn2)[C@@H](C)C1` [Example 1-14, 3-((R)-1-((7-((S)-4-ethyl-2-methylpiperazin-1-yl)-4-methylpyrido[3,4-d]pyridazin-1-yl)amino)ethyl)-2-methylbenzonitrile] are 53.9 nM and 0.788 nM.
On the same counts, the results for `CCN1CCN(c2cc3c(N[C@H](C)c4cccc(C#N)c4C)nnc(C)c3cn2)[C@H](C)C1` [Example 1-15, 3-((R)-1-((7-((R)-4-ethyl-2-methylpiperazin-1-yl)-4-methylpyrido[3,4-d]pyridazin-1-yl)amino)ethyl)-2-methylbenzonitrile] are 63.5 nM and 0.789 nM.
In the same order, the values of `Cc1c(C#N)cccc1[C@@H](C)Nc1nnc(C)c2cnc(N3CCN(C)C[C@H]3C)cc12` [Example 1-16, 3-((R)-1-((7-((R)-2,4-dimethylpiperazin-1-yl)-4-methylpyrido[3,4-d]pyridazin-1-yl)amino)ethyl)-2-methylbenzonitrile] are 34.5 nM and 0.526 nM.
Take `Cc1c(C#N)cccc1[C@@H](C)Nc1nnc(C)c2cnc(N3CCN(C)C[C@@H]3C)cc12` [Example 1-17, 3-((R)-1-((7-((S)-2,4-dimethylpiperazin-1-yl)-4-methylpyrido[3,4-d]pyridazin-1-yl)amino)ethyl)-2-methylbenzonitrile]: the IC50 in the assay on pERK in MKN1 cells turned out to be 42.6 nM. Also, in assay [1], the Ki turned out to be 0.74 nM.
Consider `CCN1CCN(c2cc3c(N[C@H](C)c4cccc(C#N)c4C)nnc(C)c3cn2)C[C@@H]1C` [Example 1-18, 3-((R)-1-((7-((S)-4-ethyl-3-methylpiperazin-1-yl)-4-methylpyrido[3,4-d]pyridazin-1-yl)amino)ethyl)-2-methylbenzonitrile], for which the concentration for half-maximal inhibition (IC50) in the assay on pERK in MKN1 cells was 35.9 nM. Also, the inhibition constant Ki in assay [1] stood at 0.836 nM.
On the same counts, the results for `Cc1c(C#N)cccc1[C@@H](C)Nc1nnc(C)c2cnc(N3CCC34CN(C)C4)cc12` [Example 1-19, (R)-2-methyl-3-(1-((4-methyl-7-(6-methyl-1,6-diazaspiro[3.3]heptan-1-yl)pyrido[3,4-d]pyridazin-1-yl)amino)ethyl)benzonitrile] are 32.2 nM and 0.601 nM.
In the same order, the values of `Cc1nnc(N[C@H](C)c2cccc(C(F)(F)F)c2F)c2cc(N3CCC34CN(C)C4)ncc12` [Example 1-20, (R)-N-(1-(2-fluoro-3-(trifluoromethyl)phenyl)ethyl)-4-methyl-7-(6-methyl-1,6-diazaspiro[3.3]heptan-1-yl)pyrido[3,4-d]pyridazin-1-amine] are 40.7 nM and 0.682 nM.
In the same order, the values of `Cc1nnc(N[C@H](C)c2cccc(C(F)(F)F)c2F)c2cc(N3CCCC34CN(C)C4)ncc12` [Example 1-21, (R)-N-(1-(2-fluoro-3-(trifluoromethyl)phenyl)ethyl)-4-methyl-7-(2-methyl-2,5-diazaspiro[3.4]octan-5-yl)pyrido[3,4-d]pyridazin-1-amine] are 25.5 nM and 0.249 nM.

The values are drawn from patent US20250059182A1, “SOS1 INHIBITORS” (Mirati Therapeutics, Inc., priority 2021, published 2025).
